Measurements: patent publication US12337004B2, “Coumarin-modified androgens for the treatment of prostate cancer” (Health Research, Inc., priority 2019, dated 2025)
Entries after “also recorded” stand apart in the source; their conditions may differ. Where a name gives a salt, the structure may show the parent alone.

Legend:
LAPC-4 cells = experiment: MTT cell growth, LAPC-4; assay type: cell-based; settings: six days; data not shown
LNCaP cells = experiment: MTT cell growth, LNCaP; assay type: cell-based; settings: six days; data not shown
[1] = test system: AR- or AR-GFP negative PC-3 cells; experiment: ImageStream nuclear localization in AR-negative PC-3 cells; assay type: cell-based; settings: PC-3 cells without AR or AR-GFP (empty plasmid); hydrochloride
Procedure: (§1) ImageStream studies were repeated using VCaP and PC-3 cells that stably expressed AR-V2 (splice-variant that lacked the N-terminus) with C-terminal GFP (AR-V2-GFP). […] ImageStream data was confirmed using immunoprecipation (IP) studies performed with a DHT-targeted antibody.
(§2) Serum-free complete media (SFM)^2 was used to androgen deprive cells. PC-3 cells that contained empty plasmid were treated with SFM alone, SFM with C or SFM with DHT-3C.

KLK2 [2] = experiment: qRT-PCR of AR-regulated gene KLK2; assay type: cell-based; settings: 24 hours; VCaP, LAPC-4, LNCaP, CWR-R1 and 22rv1 cells
CWR-R1 cells = experiment: MTT cell growth, CWR-R1; assay type: cell-based, human; settings: six days; DHT-17C at 20 nM, DHT-3C at 20 nM
Procedure: (§3) Identification of a 3α-oxidoreductase inhibitors: Various non-steroidal compounds were tested for anti-neoplastic activity by screening against PC-3 CaP cells. Coumarin-labeled androgens were developed to track changes in androgen metabolism pathways in response to castration or androgen metabolism inhibition using in vitro and in vivo CaP cell models.
(§4) VCaP, CWR-R1 and PC-3 cells were treated for six days with complete culture media (CM), serum-free culture media (SFM), bicalutamide (Bic) at 10 μM, the coumarin C at 20 μM, DHT at 10 nM, DHT-17C at 20 nM and DHT-3C at 20 nM (FIG. 20). […] MTT analysis was performed to compare cell growth impairment of VCaP cells treated with DHT-17C versus enzalutamide. Cells were treated with DHT-17C at 1 nM, 12 nM, 20 nM, 50 nM or 100 nM concentrations, or enzalutamide at 1 μM, 12 μM, 20 μM, 50 μM or 100 μM concentrations. […] MTT performed using ezanlutamide (20 uM) or DHT-17C (50 nM) treated mutant AR and AR-V7 positive CWR-R1 cells supported VCaP MTT data (FIG. 22).

AR-V2-GFP = target: T1, AR-V2-GFP (Homo sapiens, UniProt P10275); experiment: ImageStream co-localization with AR-V2-GFP; assay type: cell-based; settings: VCaP and PC-3 cells that stably expressed AR-V2-GFP; hydrochloride
T1 construct: stably expressed AR170 LBD only with splice variant V2 (AR-V2-GFP); expressed in transfected cells; host or cells: VCaP, PC-3
T1 sequence (P10275 1-388 isoform P10275-2): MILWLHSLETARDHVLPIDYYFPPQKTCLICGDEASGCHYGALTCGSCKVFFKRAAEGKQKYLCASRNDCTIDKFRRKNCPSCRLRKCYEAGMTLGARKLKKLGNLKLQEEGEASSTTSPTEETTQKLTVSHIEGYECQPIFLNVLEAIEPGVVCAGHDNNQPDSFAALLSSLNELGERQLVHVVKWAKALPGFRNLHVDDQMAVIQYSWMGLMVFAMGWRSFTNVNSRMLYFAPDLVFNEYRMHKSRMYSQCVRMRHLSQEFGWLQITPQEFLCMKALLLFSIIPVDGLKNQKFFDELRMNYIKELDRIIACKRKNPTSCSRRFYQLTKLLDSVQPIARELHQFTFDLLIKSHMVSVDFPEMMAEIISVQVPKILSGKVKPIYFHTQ
Procedure: as §1, §2

CaP cell lines = experiment: MTT CaP cell growth during androgen deprivation, cell line panel; assay type: cell-based; settings: SFM with DHT-3C, six days
From the text: MTT analysis was used to assess if treatment with DHT-3C facilitated CaP cell growth during androgen deprivation. […] SFM with DHT-3C stimulated growth in 3 of 5 cell lines (FIG. 25).

VCaP cells = experiment: MTT cell growth, VCaP; assay type: cell-based
Procedure: as §3, §4

KLK2 [3] = experiment: Western blot of AR-regulated protein expression; assay type: cell-based; settings: CaP cell lines
AR-GFP = target: T2, AR-GFP (Homo sapiens, UniProt P10275); experiment: ImageStream nuclear co-localization with AR-GFP; assay type: cell-based
T2 construct: expressed in transfected cells; host or cells: VCaP, PC-3 (also LAPC-4, CWR-R1, 22Rv1, DU145)
T2 sequence (P10275 1-920): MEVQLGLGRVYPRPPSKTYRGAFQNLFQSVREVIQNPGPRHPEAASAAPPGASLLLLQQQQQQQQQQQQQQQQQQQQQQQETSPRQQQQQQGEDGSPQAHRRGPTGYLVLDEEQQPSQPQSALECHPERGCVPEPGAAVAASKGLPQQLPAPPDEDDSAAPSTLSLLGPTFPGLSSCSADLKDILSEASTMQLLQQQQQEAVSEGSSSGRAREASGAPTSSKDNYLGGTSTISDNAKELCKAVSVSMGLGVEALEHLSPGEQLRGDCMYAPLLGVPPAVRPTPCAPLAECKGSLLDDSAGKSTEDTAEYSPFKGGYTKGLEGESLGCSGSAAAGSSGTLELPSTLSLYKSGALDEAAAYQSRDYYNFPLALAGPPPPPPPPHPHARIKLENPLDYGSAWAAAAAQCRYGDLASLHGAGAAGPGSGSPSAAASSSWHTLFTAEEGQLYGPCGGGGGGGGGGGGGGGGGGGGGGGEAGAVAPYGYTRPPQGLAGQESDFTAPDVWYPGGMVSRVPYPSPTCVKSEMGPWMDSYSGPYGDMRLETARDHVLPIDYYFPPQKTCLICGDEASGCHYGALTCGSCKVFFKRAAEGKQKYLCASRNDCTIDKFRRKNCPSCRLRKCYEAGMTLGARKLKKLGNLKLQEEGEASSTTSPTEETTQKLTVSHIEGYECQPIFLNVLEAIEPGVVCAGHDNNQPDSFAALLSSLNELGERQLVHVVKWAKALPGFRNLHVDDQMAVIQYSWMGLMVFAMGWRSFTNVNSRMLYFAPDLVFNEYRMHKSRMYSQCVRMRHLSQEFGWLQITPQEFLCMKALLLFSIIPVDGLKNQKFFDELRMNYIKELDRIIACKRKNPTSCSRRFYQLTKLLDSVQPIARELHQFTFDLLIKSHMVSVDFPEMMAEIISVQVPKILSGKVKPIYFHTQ
From the text: Androgen-sensitive AR-positive LAPC-4 and VCaP, castration-recurrent and AR-positive CWR-R1 and CWR-22rv1 (22rv1), and AR-negative PC-3 and DU145 cells were transfected with either an empty pCMV expression plasmid (control) or a pCMV plasmid that encoded a wild-type AR tagged with a C-terminal green fluorescent protein (GFP; AR-GFP). AR-positive CaP cell lines were transfected with AR-GFP to assess if DHT-17C or DHT-3C co-localized with AR and translocated to the nucleus.
AR positive CaP cell lines were treated for 16 hours with androgen-free, serum-free complete media (SFM) alone, or SFM that contained 20 nM or 50 nM fluorescent-androgens or C alone. The time points were chosen to measure differences in uptake of the fluorescent-androgens and nuclear or cytosolic localization of the fluorescent-androgens and/or AR-GFP.
Serum-free complete media (SFM)^2 was used to androgen deprive cells.

CRPC = settings: cited from earlier work

| Compound | LAPC-4 cell growth (MTT) (LAPC-4 cells) | LNCaP cell growth (MTT) (LNCaP cells) | nuclear localization in AR-negative cells [1] | KLK2 transcript induction (KLK2 [2]) | CWR-R1 cell growth (MTT) (CWR-R1 cells) | co-localization with AR-V2-GFP (AR-V2-GFP) | cell lines with stimulated growth (CaP cell lines) | VCaP cell growth (MTT) (VCaP cells; six days, DHT-17C at 20 nM, DHT-3C at 20 nM) | AR-regulated protein expression levels (KLK2 [3]) | nuclear co-localization with AR-GFP (AR-GFP; PC-3-AR-GFP cells, SFM) | nuclear co-localization with AR-GFP (AR-GFP; VCaP that stably expressed AR-GFP) | nuclear co-localization with AR-GFP and DRAQ5 (AR-GFP; VCaP-AR-GFP and PC-3-AR-GFP cells) | extension of survival (CRPC) | VCaP cell growth impairment versus DHT-17C (VCaP cells; enzalutamide at 1, 12, 20, 50 or 100 μM) |
| --- | --- | --- | --- | --- | --- | --- | --- | --- | --- | --- | --- | --- | --- | --- |
| C[C@]12CC[C@]3(C[C@@H]1CC[C@@H]1[C@@H]2CC[C@]2(C)[C@@H](O)CC[C@@H]12)NCCc1c3c(=O)oc2c3c4c(cc12)CCCN4CCC3 [DHT-3C, (3R,5S,10S,13S,17S)-17-hydroxy-10,13-dimethyl-1,2,2′,3′,4,5,6,7,8,8′,9,9′,10,11,12,12′,13,13′,14,15,16,17-docosahydro-7′H,11′H-spiro[cyclopenta[a]phenanthrene-3,4′-pyrido[3,2,1-ij]pyrido[4′,3′:4,5]pyrano[2,3-j]quinolin]-5′(1′H)-one hydrochloride] | promoted VCaP, LAPC-4, and LNCaP cell growth | promoted VCaP, LAPC-4, and LNCaP cell growth | did not produce nuclear fluorescence | produced similar inductions of expression | promoted | co-localized with DRAQ5 and AR-V2-GFP; also recorded: co-localized with the AR LBD | 3 of 5 | promoted VCaP, LAPC-4, and LNCaP cell growth | produced similar AR-regulated protein expression levels | showed nuclear co-localization between DHT-3C and AR-GFP | demonstrated co-localization between DHT-3C and AR-GFP | co-localized with AR-GFP | – | – |
| CNC(=O)c1ccc(N2C(=S)N(c3ccc(C#N)c(C(F)(F)F)c3)C(=O)C2(C)C)cc1F [enzalutamide, reference compound] | – | – | – | – | – | – | – | – | – | – | – | – | 4.8 months | impaired VCaP cell growth to similar extents |
